Data: US10308607B2, “Fucosidase inhibitors” (HORIZON ORPHAN LLC, priority 2015, dated 2019)
Several values for one entry are separate records, joined by “and”; a condition that tells them apart may be missing. Equal entries are not always repeated.

Key:
[1] = molecular target: rhFUCA1 (Homo sapiens (Human), UniProt P04066); experiment: In vitro fucosidase inhibition (4MU-FUC fluorescence); format: biochemical; conditions: 1 ng/mL rhFUCA1, 640 nM 4MU-FUC, pH 4.5, 37° C., 30 minutes
Description: Fucosidase inhibition was assessed by preparing a reaction mixture of 50 mM phosphate-citrate pH 4.5, 5 mM MgCl2, 640 nM 4-methylumbelliferyl-alpha-L-fucopyranoside (4MU-FUC), 1 ng/mL rhFUCA1 (R&D Systems), and compound II, III, or IV:
Reactions (100 μL) were incubated at 37° C. for 30 minutes and then quenched with the same volume of 600 mM citrate-carbonate buffer, pH 9. Fluorescence was measured by excitation at 360 nm and emission at 450 nm.

[2] = Pharmacokinetics in mouse plasma; format: in vivo; conditions: for Conc. of cmpd II: individual animal
Description: To assess the pharmacokinetics of compound II (see Example 2) in mouse plasma, compound II was administered intravenously at a dosage of 1 mg/kg. Compound II concentration was measured at various time points up to 24 hours after administration, and the results are provided in Table 5.

[3] = tested on: human hepatocarcinoma cell line HepG2; experiment: Orthotopic model of human hepatocellular carcinoma; format: in vivo, nude mice
Description: To assess the compounds in vivo, an orthotopic model of human hepatocellular carcinoma was used. The orthotopic tumor model was generated by implanting human hepatocarcinoma cell line HepG2 into nude mice and allowing the tumor cells to grow in vivo.
The efficacy study was carried out using 10 mice per group and two dosage regimens. Compound II (see Example 2) was administered by oral gavage (po) at a dosage of 175 mg/kg once daily for 3 weeks (QDx21) or at a dosage of 87.5 mg/kg twice daily for 3 weeks (BIDx21). Vehicle (100 μL) was administered to control animals.

[4] = tested on: A549; experiment: Multiplexed cytotoxicity assay; format: cell-based; conditions: A549, lung carcinoma, 72 hour
Description: (§1) To assess the cytotoxicity of compound II (see Example 2) in cancer and normal cells, the cells were grown in RPMI1640, 10% FBS, 2 mM L-alanyl-L-Glutamine, 1 mM Na Pyruvate or a special medium in a humidified atmosphere of 5% CO2 at 37° C. Cells were seeded into 384-well plates and incubated in a humidified atmosphere of 5% CO2 at 37° C. Compound II was added 24 hours post cell seeding. At the same time, a time zero untreated cell plate was generated.
(§2) After a 72 hour incubation period, cells were fixed and stained with fluorescently labeled antibodies and nuclear dye to allow visualization of nuclei, apoptotic cells and mitotic cells. Apoptotic cells were detected using an anti-active caspase-3 antibody. Mitotic cells were detected using an anti phospho-histone-3 antibody.
(§3) Compound II was serially diluted 3.16-fold and assayed over 9 concentrations. Automated fluorescence microscopy was carried out using a GE Healthcare IN Cell Analyzer 1000, and images were collected with a 4× objective.
(§4) Twelve bit tiff images were acquired using the InCell Analyzer 1000 3.2 and analyzed with Developer Toolbox 1.6 software. EC50 and IC50 values were calculated using nonlinear regression to fit data to a sigmoidal 4 point, 4 parameter One-Site dose response model, where: y (fit)=A+[(B−A)/(1+((C/x)^D))]. Curve-fitting, EC50/IC50 calculations and report generation are performed using a custom data reduction engine MathIQ based software (AIM).
(§5) The multiplexed cytotoxicity assay uses a cell image based analysis technique where cells are fixed and stained with fluorescently labeled antibodies and nuclear dye to visualize nuclei, and apoptotic and mitotic cells. Apoptotic cells are detected using an anti-active caspase-3 antibody. Mitotic cells are detected using an anti phospho-histone-3 antibody. Cell proliferation is measured by the signal intensity of the incorporated nuclear dye. The cell proliferation assay output is referred to as the relative cell count. To determine the cell proliferation end point, the cell proliferation data output is transformed to percent of control (POC) using the following formula: POC=relative cell count(compound wells)/relative cell count(vehicle wells)×100.
(§6) Relative cell count IC50 is the test compound concentration at 50% of maximal possible response. A relative cell count EC50 is the test compound concentration at the curve inflection point or half the effective response (parameter C of the fitted curve solution). GI50 is the concentration needed to reduce the observed growth by half. This is the concentration that inhibits the growth midway between untreated cells and the number of cells seeded in the well (Time zero value).
(§7) The activated caspase-3 marker labels cells from early to late stage apoptosis. The output is shown as a fold increase of apoptotic cells over vehicle background normalized to the relative cell count in each well. Concentrations of test compound that cause a 5-fold induction in the caspase-3 signal indicates significant apoptosis induction. Wells with concentrations higher than the relative cell count IC95 are eliminated from the caspase3 induction analysis.
(§8) The phospho-histone-3 marker labels mitotic cells. The output is shown as a fold induction of mitotic cells over vehicle background normalized to the relative cell count in each well. When the fold induction of mitotic cell signal over background is ˜1, there is “no effect” on the cell cycle. Two or more fold increase in phospho-histone-3 signal over vehicle background indicates significant test compound induction of mitotic block.
(§9) Two or more fold decrease in the phospho-histone-3 signal may indicate G1/S block only when cytotoxicity levels are below the measured relative cell count IC95. […]

[5] = tested on: K562; experiment: Multiplexed cytotoxicity assay; format: cell-based; conditions: K562, blood leukemia, 72 hour
Description: as §1, §2, §3, §4, §5, §6, §7, §8, §9

[6] = tested on: HUMSC; experiment: Multiplexed cytotoxicity assay; format: cell-based; conditions: normal mesenchymal stem, 72 hour
Description: as §1, §2, §3, §4, §5, §6, §7, §8, §9

[7] = tested on: BxPC-3; experiment: Multiplexed cytotoxicity assay; format: cell-based; conditions: BxPC-3, pancreas carcinoma, 72 hour
Description: as §1, §2, §3, §4, §5, §6, §7, §8, §9

[8] = tested on: HUVEC; experiment: Multiplexed cytotoxicity assay; format: cell-based; conditions: normal endothelium, 72 hour
Description: as §1, §2, §3, §4, §5, §6, §7, §8, §9

[9] = 87.5 mg/kg po twice daily (BIDx21), Day 0
[10] = 87.5 mg/kg po twice daily (BIDx21), Day 2
[11] = 87.5 mg/kg po twice daily (BIDx21), Day 5
[12] = 87.5 mg/kg po twice daily (BIDx21), Day 9
[13] = 87.5 mg/kg po twice daily (BIDx21), Day 12
[14] = 87.5 mg/kg po twice daily (BIDx21), Day 16
[15] = 87.5 mg/kg po twice daily (BIDx21), Day 20
[16] = 175 mg/kg po once daily (QDx21), Day 0
[17] = 175 mg/kg po once daily (QDx21), Day 2
[18] = 175 mg/kg po once daily (QDx21), Day 5
[19] = 175 mg/kg po once daily (QDx21), Day 9
[20] = 175 mg/kg po once daily (QDx21), Day 12
[21] = 175 mg/kg po once daily (QDx21), Day 16
[22] = 175 mg/kg po once daily (QDx21), Day 20

Sequence of rhFUCA1 (P04066 32-466): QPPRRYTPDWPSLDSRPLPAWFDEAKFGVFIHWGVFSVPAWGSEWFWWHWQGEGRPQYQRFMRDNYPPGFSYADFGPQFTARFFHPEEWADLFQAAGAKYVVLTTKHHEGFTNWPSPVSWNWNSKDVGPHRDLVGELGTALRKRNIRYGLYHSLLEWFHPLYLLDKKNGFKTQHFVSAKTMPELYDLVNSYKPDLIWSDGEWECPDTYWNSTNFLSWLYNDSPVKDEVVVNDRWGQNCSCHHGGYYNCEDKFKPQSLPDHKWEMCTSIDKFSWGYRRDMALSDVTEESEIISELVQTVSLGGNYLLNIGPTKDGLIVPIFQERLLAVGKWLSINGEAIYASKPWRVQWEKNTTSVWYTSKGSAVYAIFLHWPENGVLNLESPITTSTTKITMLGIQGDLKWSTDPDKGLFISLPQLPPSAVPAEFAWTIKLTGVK

## C[C@@H]1N[C@H](CNC(=O)c2cccc3c2C(=O)c2ccccc2-3)[C@@H](O)[C@H](O)[C@@H]1O [Compound II]
[1]
  IC50: 16 nM
[2]; IV 1 mg/kg qdx1, 5 min
  Conc. of cmpd II: 247 ng/mL and 313 ng/mL and 259 ng/mL
  Mean conc. of cmpd II: 273 ng/mL
[2]; IV 1 mg/kg qdx1, 1 h
  Conc. of cmpd II: 28.7 ng/mL and 31.8 ng/mL and 34.3 ng/mL
  Mean conc. of cmpd II: 31.6 ng/mL
[2]; IV 1 mg/kg qdx1, 2 h
  Conc. of cmpd II: 8.58 ng/mL and 5.83 ng/mL and 9.10 ng/mL
  Mean conc. of cmpd II: 7.84 ng/mL
[2]; IV 1 mg/kg qdx1, 4 h
  Conc. of cmpd II: 2.76 ng/mL and 1.86 ng/mL and 3.36 ng/mL
  Mean conc. of cmpd II: 2.66 ng/mL
[2]; IV 1 mg/kg qdx1, 8 h
  Conc. of cmpd II: 1.56 ng/mL and 1.17 ng/mL and 1.57 ng/mL
  Mean conc. of cmpd II: 1.43 ng/mL
[2]; IV 1 mg/kg qdx1, 12 h
  Conc. of cmpd II: 1.04 ng/mL and 1.06 ng/mL and 2.04 ng/mL
  Mean conc. of cmpd II: 1.38 ng/mL
[2]; IV 1 mg/kg qdx1, 24 h
  Conc. of cmpd II: BQL (Below Quantitation limit <1.0 ng/m1)
[3]; [9]
  Body Weight: 22.45 g
  Tumor Volume: 212 mm^3
[3]; [10]
  Body Weight: 22.05 g
  Tumor Volume: 224 mm^3
[3]; [11]
  Body Weight: 21.93 g
  Tumor Volume: 227 mm^3
[3]; [12]
  Body Weight: 21.58 g
  Tumor Volume: 247 mm^3
[3]; [13]
  Body Weight: 21.51 g
  Tumor Volume: 270 mm^3
[3]; [14]
  Body Weight: 20.39 g
  Tumor Volume: 326 mm^3
[3]; [15]
  Body Weight: 20.86 g
  Tumor Volume: 320 mm^3
[3]; [16]
  Body Weight: 22.93 g
  Tumor Volume: 211 mm^3
[3]; [17]
  Body Weight: 22.94 g
  Tumor Volume: 238 mm^3
[3]; [18]
  Body Weight: 22.28 g
  Tumor Volume: 277 mm^3
[3]; [19]
  Body Weight: 22.1 g
  Tumor Volume: 320 mm^3
[3]; [20]
  Body Weight: 22.26 g
  Tumor Volume: 348 mm^3
[3]; [21]
  Body Weight: 20.58 g
  Tumor Volume: 364 mm^3
[3]; [22]
  Body Weight: 19.98 g
  Tumor Volume: 416 mm^3
[4]
  G1/S arrest: 21 µM
[5]
  G1/S arrest: 93 µM
[6]
  G1/S arrest: 10 µM
[7]
  G1/S arrest: 55 µM
[8]
  G1/S arrest: 14 µM
